According to patent publication US20140335083A1, “METHODS OF TREATMENT AND PREVENTION OF EYE DISEASES” (GLAXO GROUP LIMITED, priority 2011, published 2014):

Test system: retinal neovascularization in C57BL/6 mice
Test: Oxygen-induced retinopathy, area of retinal neovascularization
Type: in vivo
Conditions: hyperbaric oxygen
Description: C57BL/6 mice placed in 75% O2 at postnatal day (P) 7 and at P12 were returned to room air and treatment initiated with compound or vehicle. At P17, the area of retinal NV on the surface of the retina was measured as described previously (Shen et al., 2007). Briefly, P17 mice were given an intraocular injection of 1 μl of rat anti-mouse platelet endothelial cell adhesion molecule-1 (PECAM-1) antibody (Pharmingen, San Jose, Calif., USA); after 12 h, they were euthanized, and eyes were fixed in PBS-buffered formalin for 5 h at room temperature. Retinas were dissected, washed, and incubated with goat-anti rat polyclonal antibody conjugated with Alexa 488 (Invitrogen, Carlsbad, Calif., USA) at 1:500 dilution at room temperature for 45 min and flat mounted. An observer masked with respect to treatment group measured the area of NV per retina by image analysis.
(see, FIGS. 12 and 13). In systemic experiments both eyes were examined and no significant differences were observed between CCR3 inhibitor '994 and vehicle treated groups. In topical experiments no significant differences were noted between CCR3 inhibitor '994 and vehicle groups nor treated and fellow eye in the CCR3 inhibitor '994 treated group. […] Consequently SU4312 acts similarly on retinal neovascularization to that of an alternative receptor tyrosine kinase inhibitor pazopanib which was effective in limiting choroidal neovascularization.

NC(=O)c1ccc(CNC(=O)NC[C@H]2CN(Cc3ccc(Cl)c(Cl)c3)CCO2)cc1 [CCR3 inhibitor '994, 4-[[[[[[(2s)-4-[(3,4-dichlorophenyl)methyl]-2-morpholinyl]methyl]-amino]carbonyl]-amino]methyl]benzamide]
effect on neovascularization of retinal vessels (systemic 8 mg/kg BID i.p.): did not have an effect | effect on neovascularization of retinal vessels (topically 5 ul 10 mg/ml BID): did not have an effect
